Results from patent US8609173B2, “Compositions comprising sweetness enhancers and methods of making them” (Senomyx Inc., priority 2008, dated 2013).

How the values were obtained:
External panelists = assay: Line scale (15-point sucrose equivalence) sensory test, Example 5, sucrose or LSB, pH 7.1; assay type: in vivo, Human
Protocol: (§1) Several types of sensory tests were used to determine the efficacy of 3-(4-amino-2,2-dioxide-1H-benzo[c][1,2,6]thiadiazin-5-yloxy)-2′,2′-dimethyl-N-propylpropanamide 3-(4-amino-2,2-dioxide-1H-benzo[c][1,2,6]thiadiazin-5-yloxy)-2′,2′-dimethyl-N-propylpropanamide in enhancing the sweetness of sucrose. Two types of tests were conducted: • 1) Sensory scaling tests were performed using a 15-point percent sucrose equivalence scale for sweetness in order to evaluate sweetness enhancement 3-(4-amino-2,2-dioxide-1H-benzo[c][1,2,6]thiadiazin-5-yloxy)-2′,2′-dimethyl-N-propylpropanamide 3-(4-amino-2,2-dioxide-1H-benzo[c][1,2,6]thiadiazin-5-yloxy)-2′,2′-dimethyl-N-propylpropanamide in sucrose or in fructose. • 2) Paired comparison tests (2-alternative forced choice difference tests) were used to determine sweetness equivalence for solutions of sucrose vs. 3-(4-amino-2,2-dioxide-1H-benzo[c][1,2,6]thiadiazin-5-yloxy)-2′,2′-dimethyl-N-propylpropanamide 3-(4-amino-2,2-dioxide-1H-benzo[c][1,2,6]thiadiazin-5-yloxy)-2′,2′-dimethyl-N-propylpropanamide or buffer vs. 3-(4-amino-2,2-dioxide-1H-benzo[c][1,2,6]thiadiazin-5-yloxy)-2′,2′-dimethyl-N-propylpropanamide 3-(4-amino-2,2-dioxide-1H-benzo[c][1,2,6]thiadiazin-5-yloxy)-2′,2′-dimethyl-N-propylpropanamide. Stimuli:
Tests were performed with sucrose or fructose. The sweetener was evaluated with and/or without 3-(4-amino-2,2-dioxide-1H-benzo[c][1,2,6]thiadiazin-5-yloxy)-2′,2′-dimethyl-N-propylpropanamide 3-(4-amino-2,2-dioxide-1H-benzo[c][1,2,6]thiadiazin-5-yloxy)-2′,2′-dimethyl-N-propylpropanamide at the appropriate concentration(s).
3-(4-amino-2,2-dioxide-1H-benzo[c][1,2,6]thiadiazin-5-yloxy)-2′,2′-dimethyl-N-propylpropanamide was prepared as a concentrated stock solution in ethanol to ensure dissolution of the 3-(4-amino-2,2-dioxide-1H-benzo[c][1,2,6]thiadiazin-5-yloxy)-2′,2′-dimethyl-N-propylpropanamide. Therefore, all taste solutions contained ethanol in the final solution. Samples without 3-(4-amino-2,2-dioxide-1H-benzo[c][1,2,6]thiadiazin-5-yloxy)-2′,2′-dimethyl-N-propylpropanamide also contained an equivalent concentration of ethanol. For samples involving 3-(4-amino-2,2-dioxide-1H-benzo[c][1,2,6]thiadiazin-5-yloxy)-2′,2′-dimethyl-N-propylpropanamide at 5-10 ppm (up to 28 μM), the final concentration of ethanol was 0.2%; 30-40 μM, 0.4% ethanol; 50 μM, 0.5% ethanol; and 100 μM, 1% ethanol.
Taste samples were also prepared in low sodium phosphate buffer (pH 7.1; “LSB”) lacking sucrose to evaluate the taste of 3-(4-amino-2,2-dioxide-1H-benzo[c][1,2,6]thiadiazin-5-yloxy)-2′,2′-dimethyl-N-propylpropanamide alone. Low sodium phosphate buffer consists of 0.3 mM KCl, 0.5 mM Na2HPO4, and 0.175 mM KH2PO4.
In scaling test situations, the samples were rated on a 15-point scale for sweetness, ranging from 0=0% sucrose to 15=15% sucrose. To evaluate attributes other than sweetness, references are used for training and are prepared according to the table below. Note that each reference was given a score of 5 on the 15-point scale.
External panelists were used for the tests. The exact number of panelists is reported with test results. Subjects were instructed not to eat or drink anything (except water) for at least 1 hour prior to the test.
Panelists rinsed their mouths with water prior to starting any test. Samples were presented to panelists in a randomized, counterbalanced order. Panelists rinsed with water and had up to a 1 minute delay to clear the mouth of any tastes after each evaluation. Two replicates of each test were performed, unless otherwise noted.
In scaling tests, panelists rate samples monadically for the attributes listed above (see Stimuli). In paired comparison tests, panelists taste pairs of solutions and indicate which sample is perceived to be sweeter.
Attributes of interest are reported for each scaling taste test.
Panelists rinsed their mouths with water prior to starting any test. Samples were presented to panelists in a randomized, counterbalanced order. […]

Panelists = assay: Paired comparison taste test, Example 7, sucrose or fructose solutions; assay type: in vivo, Human; conditions: 1% Sucrose chosen, vs 28 μM (9.9 ppm) compound; n = 32
Protocol: as §1
Panelists evaluated two solutions in a paired comparison taste test procedure. They were instructed to select the sweeter of the two samples. They were also asked to comment on how difficult it was to tell the difference in sweetness between both samples and if any off tastes were perceived.
Panelists evaluated two solutions in a paired comparison taste test procedure and were instructed to select the sweeter of the two samples.

With `OC[C@H]1O[C@@](CO)(O[C@H]2O[C@H](CO)[C@@H](O)[C@H](O)[C@H]2O)[C@@H](O)[C@@H]1O` [Sucrose, sucrose] the “Average Sweetness” value (External panelists; 1% Sucrose, Table 25, n = 30) was 1.2, the “Average Bitterness” value (External panelists; 1% Sucrose, Table 26, n = 30) was 0.4 and the “Average Sweetness” value (External panelists; 2% Sucrose, Table 20, n = 30) was 2.3. The “Average Bitterness” value (External panelists; 2% Sucrose, Table 21, n = 30) was 0.3, the “Average Sweetness” value (External panelists; 2% Sucrose, Table 22, n = 14) was 2.3 and the “Average Sweetness” value (External panelists; 2% Sucrose, Table 25, n = 30) was 2.2. For the same molecule, the “Average Bitterness” value (External panelists; 2% Sucrose, Table 26, n = 30) was 0.3, the “Average Sweetness” value (External panelists; 2% Sucrose, Table 27, n = 28) was 2.0 and the “Average Bitterness” value (External panelists; 2% Sucrose, Table 28, n = 28) was 0.1. For the same molecule, the “Average Sweetness” value (External panelists; 4% Sucrose, Table 20, n = 30) was 4.2, the “Average Bitterness” value (External panelists; 4% Sucrose, Table 21, n = 30) was 0.2 and the “Average Sweetness” value (External panelists; 4% Sucrose, Table 22, n = 14) was 4.3. The “Average Sweetness” value (External panelists; 4% Sucrose, Table 25, n = 30) was 4.4, the “Average Bitterness” value (External panelists; 4% Sucrose, Table 26, n = 30) was 0.3 and the “Average Sweetness” value (External panelists; 4% Sucrose, Table 27, n = 28) was 4.2. The “Average Bitterness” value (External panelists; 4% Sucrose, Table 28, n = 28) was 0.1, the “Average Sweetness” value (External panelists; 6% Sucrose, Table 16, n = 15) was 6.3 and the “Average Bitterness” value (External panelists; 6% Sucrose, Table 17, n = 15) was 0.3. The “Average Sweetness” value (External panelists; 6% Sucrose, Table 18, n = 24) was 6.2, the “Average Bitterness” value (External panelists; 6% Sucrose, Table 19, n = 24) was 0.2 and the “Average Sweetness” value (External panelists; 6% Sucrose, Table 20, n = 30) was 5.8. The “Average Bitterness” value (External panelists; 6% Sucrose, Table 21, n = 30) was 0.2, the “Average Sweetness” value (External panelists; 6% Sucrose, Table 22, n = 14) was 5.7 and the “Average Sweetness” value (External panelists; 6% Sucrose, Table 23, n = 30) was 6.7. For the same molecule, the “Average Bitterness” value (External panelists; 6% Sucrose, Table 24, n = 30) was 0.4, the “Average Sweetness” value (External panelists; 6% Sucrose, Table 25, n = 30) was 6.4 and the “Average Bitterness” value (External panelists; 6% Sucrose, Table 26, n = 30) was 0.6. For the same molecule, the “Average Sweetness” value (External panelists; 6% Sucrose, Table 27, n = 28) was 6.1, the “Average Bitterness” value (External panelists; 6% Sucrose, Table 28, n = 28) was 0.1 and the “Average Sweetness” value (External panelists; 8% Sucrose, Table 16, n = 15) was 7.7. The “Average Bitterness” value (External panelists; 8% Sucrose, Table 17, n = 15) was 0.1, the “Average Sweetness” value (External panelists; 8% Sucrose, Table 18, n = 24) was 8.3 and the “Average Bitterness” value (External panelists; 8% Sucrose, Table 19, n = 24) was 0.1. The “Average Sweetness” value (External panelists; 8% Sucrose, Table 23, n = 30) was 8.3, the “Average Bitterness” value (External panelists; 8% Sucrose, Table 24, n = 30) was 0.4 and the “Average Sweetness” value (External panelists; 8% Sucrose, Table 25, n = 30) was 8.7. The “Average Bitterness” value (External panelists; 8% Sucrose, Table 26, n = 30) was 0.3, the “Average Sweetness” value (External panelists; 8% Sucrose, Table 27, n = 28) was 8.4 and the “Average Bitterness” value (External panelists; 8% Sucrose, Table 28, n = 28) was 0.2. The “Average Sweetness” value (External panelists; 9% Sucrose, Table 16, n = 15) was 9.0, the “Average Bitterness” value (External panelists; 9% Sucrose, Table 17, n = 15) was 0.1 and the “Average Sweetness” value (External panelists; 9% Sucrose, Table 18, n = 24) was 9.3. For the same molecule, the “Average Bitterness” value (External panelists; 9% Sucrose, Table 19, n = 24) was 0.1, the “Average Sweetness” value (External panelists; 10% Sucrose, Table 16, n = 15) was 9.2 and the “Average Bitterness” value (External panelists; 10% Sucrose, Table 17, n = 15) was 0.2. For the same molecule, the “Average Sweetness” value (External panelists; 10% Sucrose, Table 18, n = 24) was 9.8, the “Average Bitterness” value (External panelists; 10% Sucrose, Table 19, n = 24) was 0.1 and the “Average Sweetness” value (External panelists; 10% Sucrose, Table 23, n = 30) was 10.3. The “Average Bitterness” value (External panelists; 10% Sucrose, Table 24, n = 30) was 0.2, the “Average Sweetness” value (External panelists; 10% Sucrose, Table 25, n = 30) was 10.5 and the “Average Bitterness” value (External panelists; 10% Sucrose, Table 26, n = 30) was 0.3. For the same molecule, the “Average Sweetness” value (External panelists; 10% Sucrose, Table 27, n = 28) was 9.6, the “Average Bitterness” value (External panelists; 10% Sucrose, Table 28, n = 28) was 0.1 and the “Average Sweetness” value (External panelists; 12% Sucrose, Table 18, n = 24) was 11.1. For the same molecule, the “Average Bitterness” value (External panelists; 12% Sucrose, Table 19, n = 24) was 0.0, the “Average Sweetness” value (External panelists; 12% Sucrose, Table 23, n = 30) was 11.2 and the “Average Bitterness” value (External panelists; 12% Sucrose, Table 24, n = 30) was 0.3. For the same molecule, the “Sample selected as more sweet by panelists, Total” value (Panelists) was 28.
